# US12565514B2, “Nucleic acid containing perfluoroalkyl group, and method for its production” (AGC Inc., priority 2019, dated 2026)
# {C5-PFC} = N[C5-PFC] unit carrying a C5 perfluoroalkyl group, added by phosphoramidite
# System: HeLa cells
# Test: Cellular uptake of fluorescein-modified nucleic acids by flow cytometry
# Format: cell-based
# Conditions: single-stranded nucleic acid with fluorescein at 3′-end, 2.5 μM in DMEM, incubated 4 or 24 hours
# Method: HeLa cells were cultured in Dulbecco's modified Eagle's medium (DMEM, Thermo Fischer Scientific) supplemented with 10% FBS and 0.5% penicillin/streptomycin in a humidified atmosphere (5 volume % CO2) at 37° C. Cells for image analysis were cultured in a 35 mm glass bottom dish (manufactured by IWAKI).
# HeLa cells were seeded in 12-well plates at a density of 10^5 cells/well and cultured. On the day after seeding, the medium in each well was replaced with DMEM medium (1 mL) containing DNA (2.5 μM) modified with fluorescein-bound N[PFC] or N[PFPE], and incubated for 4 or 24 hours. Then, the cell layer in the wells was washed twice with PBS, and the cells were detached by treatment with 0.05% (w/v) trypsin (200 μL) at 37° C. for 5 min. The recovered cells were suspended in DMEM (600 μL). The cell suspension was separated by centrifugation process (400G, 3 min), and PBS/1% BSA (500 μL) was added. The percentage of fluorescent cells and the average fluorescence intensity of this cell suspension were analyzed by a flow cytometer (“guava easyCyte8”, manufactured by Luminex).
# In the case of double-stranded DNA, a sample was denatured at 100° C. and annealed by slowly bringing it down to room temperature.
# The nucleic acid having fluorescein bonded to the 3′-end of the N[C8-PFC]-modified DNA synthesized in Example 2 was, as a single strand or as a double strand, added to the culture medium of HeLa cells and incubated, whereby the efficiency of cellular uptake was examined by flow cytometry.
# The nucleic acid having fluorescein bonded to the 3′-end of the N[C5-PFPE]-modified DNA synthesized in Example 1 was, as a single strand, added to the culture medium of HeLa cells and incubated, whereby the efficiency of cellular uptake was examined by flow cytometry.
row,Substance,cellular uptake (flow cytometry)
1,5′-(N[C5-PFC])2TTTTTCAGTTGACCATATA-3′ [F2],higher cellular uptake than the fluorescein-modified nucleic acid of cont-DNA
2,"5′-(N[C5-PFC])5TTTTTCAGTTGACCATATA-3′ (DNA, 5' {C5-PFC}-{C5-PFC}-{C5-PFC}-{C5-PFC}-{C5-PFC}, backbone not given here) [F5]",higher cellular uptake than the fluorescein-modified nucleic acid of cont-DNA
3,"5′-(N[C5-PFC])TTTTCAGTTGACCATATA-3′ (DNA, 5' {C5-PFC}, backbone not given here) [F1]",no difference from the fluorescein-modified nucleic acid of cont-DNA
